For data set [1], the target named is T1, human PPAR α (Homo sapiens, UniProt Q07869).
T1 construct: expressed in transfected cells; host or cells: HEK293
T1 sequence (Q07869 167-468 limits assumed): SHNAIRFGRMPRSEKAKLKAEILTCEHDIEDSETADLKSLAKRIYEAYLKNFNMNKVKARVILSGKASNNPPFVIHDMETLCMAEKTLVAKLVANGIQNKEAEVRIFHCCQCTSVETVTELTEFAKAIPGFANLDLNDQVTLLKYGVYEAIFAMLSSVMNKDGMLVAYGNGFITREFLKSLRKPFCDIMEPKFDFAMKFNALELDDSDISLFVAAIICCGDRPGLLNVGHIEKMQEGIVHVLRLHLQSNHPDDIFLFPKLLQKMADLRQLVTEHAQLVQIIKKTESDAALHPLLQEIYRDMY
The experiment in a line: In vitro PPAR alpha transactivation assay (GAL4-DBD/PPAR-LBD, luciferase reporter, HEK293). The class given is cell-based. To be noted: for In vitro activation PPAR α % max: fold activation relative to maximum activation obtained with Wy14643 (approx. 20 fold corresponded to 100%); for EC50: transfected HEK293 cells, 24 h compound, five concentrations 0.01 to 30 μM, at least three experiments, means, read-out: In vitro activation PPAR α EC50. An excerpt:
(§1) In Vitro PPAR Alpha and PPAR Gamma Activation Activity.
(§2) The PPAR gene transcription activation assays were based on transient transfection into human HEK293 cells of two plasmids encoding a chimeric test protein and a reporter protein respectively. The chimeric test protein was a fusion of the DNA binding domain (DBD) from the yeast GAL4 transcription factor to the ligand binding domain (LBD) of the human PPAR proteins. The PPAR LBD harbored in addition to the ligand binding pocket also the native activation domain (activating function 2=AF2) allowing the fusion protein to function as a PPAR ligand dependent transcription factor. The GAL4 DBD will force the fusion protein to bind only to Gal4 enhancers (of which none existed in HEK293 cells). The reporter plasmid contained a Gal4 enhancer driving the expression of the firefly luciferase protein. After transfection, HEK293 cells expressed the GAL4-DBD-PPAR-LBD fusion protein. The fusion protein will in turn bind to the Gal4 enhancer controlling the luciferase expression, and do nothing in the absence of ligand. Upon addition to the cells of a PPAR ligand, luciferase protein will be produced in amounts corresponding to the activation of the PPAR protein. The amount of luciferase protein is measured by light emission after addition of the appropriate substrate.
(§3) Cell culture and transfection: HEK293 cells were grown in DMEM+10% FCS. Cells were seeded in 96-well plates the day before transfection to give a confluency of 50-80% at transfection. A total of […] DNA containing 0.64 μg pM1α/γLBD, 0.1 μg pCMVβGal, 0.08 μg pGL2Gal4DBD and 0.02 μg p[…] was transfected per well using FuGene transfection reagent according to the manufacturers instructions (Roche). Cells were allowed to express protein for 48 h followed by addition of compound.
Plasmids: Human PPAR α and γ was obtained by PCR amplification using cDNA synthesized by reverse transcription of mRNA from liver and adipose tissue respectively. Amplified cDNAs were cloned into pCR2.1 and sequenced. The ligand binding domain (LBD) of each PPAR isoform was generated by PCR (PPARα: aa 167—C-terminus; PPARγ: aa 165—C-terminus) and fused to the DNA binding domain (DBD) of the yeast transcription factor GAL4 by subcloning fragments in frame into the vector pM1 generating the plasmids pM1αLBD and pM1γLBD. Ensuing fusions were verified by sequencing. The reporter was constructed by inserting an oligonucleotide encoding five repeats of the GAL4 recognition sequence (5×[…](AG)) into the vector pGL2 promotor (Promega) generating the plasmid pGL2(GAL4)5. pCMVβGal was purchased from Clontech and p[…] was purchased from Promega.
(§4) Luciferase assay: Medium including test compound was aspirated and 100 μl PBS incl. 1 mM Mg++ and Ca++ was added to each well. The luciferase assay was performed using the Lu-cLite kit according to the manufacturers instructions (Packard Instruments). Light emission was quantified by counting SPC mode on a Packard Instruments top-counter. To measure β-galactosidase activity 25 μl supernatant from each transfection lysate was transferred to a new microplate. β-galactosidase assays were performed in the microwell plates using a kit from Promega and read in a microplate reader. The β-galactosidase data were used to normalize (transfection efficiency, cell growth etc.) the luciferase data.
(§5) Compounds: All compounds were dissolved in DMSO and diluted 1:1000 upon addition to the cells. Compounds were tested in quadruple in five concentrations ranging form 0.01 to 30 μM. Cells were treated with compound for 24 h followed by luciferase assay. Each compound was tested in three separate experiments. EC50 values were calculated via non-linear regression using GraphPad PRISM 3.02 (GraphPad Software, San Diego, Calif.). The results were expressed as means.
(In general: A reporter such as luciferase makes a cellular process visible.)

The target of data set [2] is T2, human PPAR γ (Homo sapiens, UniProt P37231).
T2 construct: PPARγ: aa 165—C-terminus); expressed in transfected cells; host or cells: HEK293
T2 sequence (P37231 238-503 limits assumed): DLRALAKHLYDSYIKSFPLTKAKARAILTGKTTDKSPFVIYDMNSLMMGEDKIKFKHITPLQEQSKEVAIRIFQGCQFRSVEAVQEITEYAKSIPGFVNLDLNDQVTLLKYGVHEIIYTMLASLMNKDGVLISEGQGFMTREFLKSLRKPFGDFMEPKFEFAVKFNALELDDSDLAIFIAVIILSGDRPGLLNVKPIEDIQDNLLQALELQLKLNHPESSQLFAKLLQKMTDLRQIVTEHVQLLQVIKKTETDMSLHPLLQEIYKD
In words: In vitro PPAR gamma transactivation assay (GAL4-DBD/PPAR-LBD, luciferase reporter, HEK293). The class given is cell-based. To be noted: for In vitro activation PPAR γ % max: fold activation relative to maximum activation obtained with rosiglitazone (approx. […] fold corresponded to 100%); for EC50: transfected HEK293 cells, 24 h compound, five concentrations 0.01 to 30 μM, at least three experiments, means, read-out: In vitro activation PPAR γ EC50.
Text: as §1, §2, §3
Plasmids: Human PPAR α and γ was obtained by PCR amplification using cDNA synthesized by reverse transcription of mRNA from liver and adipose tissue respectively. Amplified cDNAs were cloned into pCR2.1 and sequenced. The ligand binding domain (LBD) of each PPAR isoform was generated by PCR (PPARα: aa 167—C-terminus; PPARγ: aa 165—C-terminus) and fused to the DNA binding domain (DBD) of the yeast transcription factor GAL4 by subcloning fragments in frame into the vector pM1 generating the plasmids pM1αLBD and pM1γLBD. Ensuing fusions were verified by sequencing.
as §4, §5

What is called melting point is the temperature of the solid-liquid transition. Consider `CCOC(=O)C(Cc1ccc(OC/C=C(\C)c2ccc(-c3ccccc3)cc2)cc1)OC(C)C` (racemic) [Example 133, (E)-(S/R)-Ethyl 3-[4-(3-Biphenyl-4-yl-but-2-enyloxy)-phenyl]-2-isopropoxy-propionate], for which the melting point was in the range of 79 to 81 °C.
In general, EC50 refers to the midpoint of the concentration-response curve. `C/C(=C\COc1ccc(CC(OC(C)C)C(=O)O)cc1)c1ccc(-c2ccccc2)cc1` (racemic) [Example 134, (E)-(S/R)-3-[4-(3-Biphenyl-4-yl-but-2-enyloxy)-phenyl]-2-isopropoxy-propionic acid] registered a melting point of 125 to 127.5 °C. For the same compound, in data set [1], the “In vitro activation PPAR α % max” value was 122% and the EC50 came out at 2900 nM. For the same compound, in data set [2], the “In vitro activation PPAR γ % max” value is 155% and the EC50 is 890 nM.
Turning to `CCCCOC(Cc1ccc(OC/C=C(\C)c2ccc(-c3ccccc3)cc2)cc1)C(=O)OCC` (racemic) [Example 135, (E)-(S/R)-Ethyl 3-[4-(3-Biphenyl-4-yl-but-2-enyloxy)-phenyl]-2-butoxy-propionate], the melting point lay within 62 to 63.5 °C.
On the same count and under the same terms, the result for `CCCCCCOC(Cc1ccc(OC/C=C(\C)c2ccc(-c3ccccc3)cc2)cc1)C(=O)O` (racemic) [Example 138, (E)-(S/R)-3-[4-(3-Biphenyl-4-yl-but-2-enyloxy)-phenyl]-2-hexyloxy-propionic acid] reads 117 to 119 °C.
As to `C/C(=C\COc1ccc(CC(OCCCc2ccccc2)C(=O)O)cc1)c1ccc(-c2ccccc2)cc1` (racemic) [Example 140, (E)-(S/R)-3-[4-(3-Biphenyl-4-yl-but-2-enyloxy)-phenyl]-2-(3-phenyl-propoxy)-propionic acid], the melting point lay in the range of 115 to 117 °C.
For `CCO[C@@H](Cc1ccc(OC/C=C(\C)c2ccc(-c3ccc(Br)cc3)cc2)cc1)C(=O)O` [Example 4, (E)-(S)-3-{4-[3-(4′-Bromo-biphenyl-4-yl)-but-2-enyloxy]-phenyl}-2-ethoxy-propionic acid], in data set [1], the “In vitro activation PPAR α % max” value came out at 212% and the EC50 was 3100 nM. In addition, in data set [2], the “In vitro activation PPAR γ % max” value is given as 156% and the EC50 turned out to be 720 nM.
The matching figures for `CCOC(=O)[C@H](Cc1ccc(OC/C=C(\C)c2ccc3c(c2)Cc2ccccc2-3)cc1)OCC` [Example 9, (E)-(S)-2-Ethoxy-3-{4-[3-(9H-fluoren-2-yl)-but-2-enyloxy]-phenyl}-propionic acid ethyl ester]: 234%, 38 nM, 125% and 350 nM.
As to `CCOC(=O)[C@H](Cc1ccc(OC/C=C/c2cc3ccccc3o2)cc1)OCC` [Example 27], in data set [1], the “In vitro activation PPAR α % max” value is listed as 185% and the EC50 turned out to be 100 nM. Besides, in data set [2], the “In vitro activation PPAR γ % max” value is 99% and the EC50 is 110 nM.
The like results for `CCO[C@@H](Cc1ccc(OC/C=C(\C)c2ccc(-c3cc(Cl)ccc3OC)cc2)cc1)C(=O)O` [Example 57, (E)-(S)-3-{4-[3-(5′-Chloro-2′-methoxy-biphenyl-4-yl)-but-2-enyloxy]-phenyl}-2-ethoxy-propionic acid] were, in that order, 178%, 380 nM, 110% and 700 nM.
In the case of `CCOC(=O)[C@H](Cc1ccc(OC/C=C(\C)c2ccc(-c3ccc(C(C)C)cc3)cc2)cc1)OCC` [Example 103, (E)-(S)-Ethyl 2-Ethoxy-3-{4-[3-(4′-isopropyl-biphenyl-4-yl)-but-2-enyloxy]-phenyl}-propionate], the melting point lay in the range of 70 to 73 °C.
In the case of `CCO[C@@H](Cc1ccc(OC/C=C(\C)c2ccc(-c3cc(Br)cc(Br)c3)cc2)cc1)C(=O)O` [Example 124, (E)-(S)-3-{4-[3-(3′,5′-Dibromo-biphenyl-4-yl)-but-2-enyloxy]-phenyl}-2-ethoxy-propionic acid], in data set [1], the “In vitro activation PPAR α % max” value stood at 102% and the EC50 worked out at 350 nM. Further, in data set [2], the “In vitro activation PPAR γ % max” value was found to be 83% and the concentration giving a half-maximal response (EC50) was 300 nM.

These data come from patent US6867218B2, “Compounds, their preparation and use” (Novo Nordisk A/S, priority 2000, dated 2005).
